Data taken from patent US20090016989A1, “ANTIBODIES TO HUMAN SOMATOSTATIN RECEPTOR AND METHODS OF USE” (priority 2007, published 2009).

How the values were obtained:
Format in all cases: cell-based, human
[1] = test system: shSSTR subtype 2-BON cells; experiment: Growth suppression in tetracycline-controlled shRNA knock-down cells; conditions: sh-hSSTR subtype 2-BON; FIG. 5
Protocol: To validate that cell growth inhibition is caused by the anti-hSSTR antibody in a subtype specific manner, BON cells were stably transfected with plasmids carrying short hairpin RNA shSSTR subtype 2 or shSSTR subtype 5 in which the expression of the shRNAs were under the control of tetracycline. Sh-hSSTR subtype 2 and sh-hSSTR subtype 5 destabilize the target receptor's messenger RNA and, consequently, knock down the expression of the target gene.
The resulting maximal suppression in hours (20 hours) is designated as 100% of growth suppression. The difference measured in doubling time detected between experimental samples and untreated samples divided by the maximal suppression yields the percent growth suppression.
shSSTR BON cells were used to test the specificity of anti-hSSTR subtype 2 and anti-hSSTR subtype 5 antibodies in suppressing BON cell growth. […] The left panels of FIG. 6a and FIG. 6B are the experimental group, while the right panels are the negative control. The Y-axis of each of FIG. 6A and FIG. 6B indicates the growth suppression outcome in %, while the X-axis of each of FIG. 6A and FIG. 6B indicates the increasing concentrations of the antibodies added in each sample. […]

[2] = test system: sh-hSSTR subtype 5-BON cells; experiment: Growth in tetracycline-controlled shRNA knock-down cells; conditions: FIG. 5
BON cells [3] = experiment: Cell cycle progression, propidium iodide flow cytometry; conditions: 48 hours, 5 μg/ml antibodies or rabbit IgG, 100 nM octreotide, FIG. 12
Protocol: Propidium iodide dye was used in flow cytometry (Guava Cell Cycle Reagent Cat #4500-0220) to stain DNA and detect cell cycle progression in BON cells. Treatment conditions for the experiment were as follows: (i) D-PBS; (ii) 5 μg/ml rabbit IgG; (iii) 5 μg/ml anti-hSSTR subtype 2 antibodies; […] Treatments, as described above, were added to the cells once every 24 hours for a total of 48 hours. At the end of each treatment, cells were dissociated from the plate using 2 ml 1× trypsin-EDTA (Invitrogen Cat#2520). […] Next, phosphate buffer solution (D-PBS) (Invitrogen Cat#14190-144) was used as the exchange buffer and 15 ml Falcon tubes with samples were spun at 900 rpm using a table top centrifuge (Beckman Coulter). After centrifugation, supernatant was discarded and cell pellet was resuspended in 10 ml of PBS and this was repeated two times. […] Guava Cell Cycle Reagent (Guava Technologies, Cat#4500-0220) was used for detection by using the Guava PCA96 instrument. Cell Cycle data was analyzed by using Guava Cell Cycle module (Guava Technologies, Cat# 0500-0480). For further detail, please see Guava Cell Cycle Reagent protocol (Guava Technologies).

BON cells [4] = experiment: Cell number after 48-hour treatment (Viacount); conditions: after 2 days of daily treatment, 5 μg/ml antibody or rabbit IgG, 100 nM octreotide
Protocol: A serotonin ([…]) assay was performed using Serotonin EIA (Biosource, Cat# KAPL10-0900) to measure serotonin release by BON cells over a 48-hour period with or without treatment. […] After 24 hours, the BON cells were subjected to six different daily treatments (at maximum dosages) and grown in FBS-free cell growth media for 2 days in a sterile tissue culture chamber at 37° C. with 6% CO2. These six treatments were: […] The anti-hSSTR Abs (4)-(6) were antibodies produced in the experiment described in Example 1. At the end of each treatment, 1× Halt Protease Inhibitor cocktail (Pierce, Cat# 78415) was immediately added to each sample and the media was collected from each sample and used for Serotonin detection. Next, cells were dissociated from the plate using 2 ml of 1× trypsin-EDTA (Invitrogen Cat#2520) in cell growth media and incubated at 37° C. with 6% CO2 for 5 minutes. Subsequently, an additional 8 ml of cell growth media was added to neutralize trypsin-EDTA, and subjected to 1000 rpm at 4° C. in 15 ml Falcon tubes using Beckman table top centrifuge. Guava Technologies PCA-96 instrument (tabletop flow cytometer) and Viacount flex reagent (Guava Technologies, Cat# 4500-0100) were then used to determine the number of cells for the abovementioned treatments. The results were as follows: […]

BON cells [5] = experiment: Guava Nexin apoptosis assay (Annexin V / 7-AAD); conditions: 10 μg/ml rabbit IgG or antibodies, 100 nM octreotide, % of Total
QGP cells = experiment: MTS growth assay in pancreatic islet carcinoma cells; conditions: antibodies 5 μg/ml every 24 hours, octreotide 100 nM every 24 hour, FIG. 15
Protocol: The QGP cells were maintained in F12 HAM (Invitrogen, Cat#31765035)/D-MEM (Invitrogen, Cat#10567-014) (50/50) in 10% certified fetal bovine serum (FBS) (Invitrogen, Cat#16000-044) in 10-cm tissue culture plates (BD Biosciences, Cat#353003). QGP cells were first seeded at a density of 5000 cells/well in QGP cell growth media and grown in 96-well cell culture plates (Costar, Cat#3590) and allowed to attach and grow in 100 μl cell growth media. […] QGP cells constitutively make their own somatostatin. This negative growth autocrine loop was tested by adding 10 μg/ml neutralizing anti-SST antibody (SST antibody, right hand Y-axis of FIG. 15) once every 24 hours, and a significant growth rescue (29%) was observed. […] CellTiter 96® Aqueous One Solution Cell Proliferation Assay (MTS) (Promega, Cat#G3581), was used as described above to measure the growth doubling time for all QGP cells. Daily data collected was used to calculate the doubling time in hours. QGP cell growth increase or decrease as a result of each treatment is presented as a percent change along the x-axis in FIG. 15. The percent change for QGP cells in each treatment was derived by normalizing treated cells against untreated cells (as % of change in growth) in growth doubling time.

In the case of `C[C@@H](O)[C@@H]1NC(=O)[C@H](CCCCN)NC(=O)[C@@H](Cc2c[nH]c3ccccc23)NC(=O)[C@H](Cc2ccccc2)NC(=O)[C@@H](NC(=O)[C@H](N)Cc2ccccc2)CSSC[C@@H](C(=O)N[C@H](CO)[C@@H](C)O)NC1=O` [octreotide], the “growth doubling time under octreotide compared to BON cells” value [1] is reported as “did not change”, the “growth doubling time under octreotide compared to BON cells” value [2] is reported as “did not change” and the “cell population in G0/G1” value (BON cells [3]) is reported as about 75%. For the same compound, the number of cells (BON cells [4]) was 7 million cells, the “Live, healthy cells (Lower Left Quadrant)” value (from here on “Live … (Lower Left Quadrant)”) (BON cells [5]; 24 hours after treatment) was 95.7% and the “Late apoptotic cells (Upper Right Quadrant)” value (BON cells [5]; 48 hours after treatment) was 10.0%. For the same compound, the “Live … (Lower Left Quadrant)” value (BON cells [5]; 48 hours after treatment) was 85.4%, the “Live … (Lower Left Quadrant)” value (BON cells [5]; 72 hours after treatment) was 72.5% and the QGP growth suppression (QGP cells) was “sensitive”.
